From US20250163072A1, “MACROCYCLIC COMPOUNDS FOR THE TREATMENT OF CANCER” (Hoffmann-La Roche Inc., priority 2021, published 2025)

Legend:
Type in all cases: cell-based, human
KRAS G12D in AGS cells = test: pERK inhibition assay, AGS; conditions: Homo sapiens, 4 hours incubation
Method: (§1) This assay is to measure the ability of test compounds in inhibiting the phosphorylation of ERK, the downstream signaling of KRAS G12C in NCI-H358 cells, KRAS G12D in AGS cells, and KRAS G12V in SW620. NCI-H358 (ATCC-CRL5807) cells, AGS (ATCC-CRL-1739) cells, SW620 (ATCC-CCL-227) cells were all grown and maintained using RPMI-1640 medium (Thermo Fisher Scientific) with 10% fetal bovine serum and 1% penicillin/streptomycin. On the day prior to compound addition, cells were plated in tissue culture-treated 96 well plates (Corning-3699) at a density of 30,000 cell/well, 20,000 cell/well, 30,000 cell/well for NCI-H358, AGS and SW620 respectively, and allowed for attachment overnight. Diluted compounds were then added in a final concentration of 0.5% DMSO. After 4 hours of incubation, the medium was removed, 100 μL of 4% formaldehyde was added, and the assay plates were incubated at room temperature for 20 minutes. The plates were then washed once with phosphate buffered saline (PBS), and permeabilized with 100 μL of chilled methanol for 10 minutes. Non-specific antibody binding to the plates was blocked using 50 μL 1×BSA blocking buffer (Thermo-37520, 10-fold dilution by Phosphate-Buffered Saline Tween (PBST) for at least 1 hour at room temperature. The amount of phosphor-ERK was determined using an antibody specific for phosphorylated form of ERK. Primary antibody (pERK, CST-4370, Cell Signaling Technology) was diluted 1:300 in blocking buffer, with 50 μL aliquoted to each well, and incubated overnight at 4° C. Cells were washed five times for 5 minutes with PBST. Secondary antibody (HRP-linked anti-rabbit IgG, CST-7074, Cell Signaling Technology) was diluted 1:1000 in blocking buffer, and 50 μL was added to each well and incubated 1-2 hours at room temperature. Cells were washed 5 times for 5 minutes with PBST, 100 μL TMB ELISA substrate (abcam-ab171523) were added and gently shake for 20 minutes. 50 μL stop solution (abcam-ab171529) were added, and then read the signal (OD450) by EnVision. IC50 was determined by fitting a 4-parameter sigmoidal concentration response model.

[1] = system: KRAS G12C in NCI-H358 cells; test: pERK inhibition assay, NCI-H358; conditions: Homo sapiens, 4 hours incubation
Method: as §1

NCI-H358 cells = test: Cell viability assay, NCI-H358; conditions: Homo sapiens, NCI-H358, 72 hours, Cell Counting Kit-8, read-out: G12C IC50
Method: (§2) The purpose of this cellular assay was to determine the effects of test compounds on the proliferation of human cancer cell lines NCI-H358 (ATCC-CRL5807) cells, AGS (ATCC-CRL-1739) cells, SW620 (ATCC-CCL-227) over a 3-day treatment period by quantifying the amount of NADPH present at endpoint using Cell Counting Kit-8. Cells were seeded at 5,000 cells/well (NCI-H358), 2,000 cells/well (AGS) 2,000 cells/well (SW620) in 96-well assay plates (Corning-3699) and incubated overnight. On the day of the assay, diluted compounds were then added in a final concentration of 0.5% DMSO. After 72 hours incubation, a tenth of the volume of cell counting kit 8(Dnjindo-CK04) was added into each well. Read the signal (OD450 minus OD650) using EnVision after 2 hours incubation. IC50 was determined by fitting a 4-parameter sigmoidal concentration response model.

SW620 cells = test: Cell viability assay, SW620; conditions: Homo sapiens, SW-620, SW620, 72 hours, Cell Counting Kit-8, read-out: G12V IC50
Method: as §2

KRAS G12V in SW620 = test: pERK inhibition assay, SW620; conditions: Homo sapiens, SW-620, SW620 cells, 4 hours incubation
Method: as §1

AGS cells = test: Cell viability assay, AGS; conditions: Homo sapiens, 72 hours, Cell Counting Kit-8, read-out: G12D IC50
Method: as §2

SMILES	IC50 (KRAS G12D in AGS cells) [µM]	IC50 [1] [µM]	IC50 (NCI-H358 cells) [µM]	IC50 (SW620 cells) [µM]	IC50 (KRAS G12V in SW620) [µM]	IC50 (AGS cells) [µM]
CCn1c(-c2cccnc2[C@H](C)OC)c2c3cc(ccc31)-c1cc(O)cc(c1)C[C@H](NC(=O)[C@H](C(C)C)N(C)C(=O)[C@H]1CCN(CC#N)C1)C(=O)N1CCC[C@H](N1)C(=O)OCC(C)(C)C2 (atropisomer, axis not shown; (M)) [Example 7, (3S)-1-(cyanomethyl)-N-[(1S)-1-[[(8S,14S)-22-ethyl-4-hydroxy-(21M)-21-[2-[(1S)-1-methoxyethyl]-3-pyridyl]-18,18-dimethyl-9,15-dioxo-16-oxa-10,22,28-triazapentacyclo[18.5.2.12,6.110,14.023,27]nonacosa-1(26),2,4,6(29),20,23(27),24-heptaen-8-yl]carbamoyl]-2-methyl-propyl]-N-methyl-pyrrolidine-3-carboxamide]	0.236	0.513				
C#CCN1CC[C@H](C(=O)N(C)[C@H](C(=O)N[C@H]2Cc3cc(O)cc(c3)-c3ccc4c(c3)c(c(-c3cccnc3[C@H](C)OC)n4CC)CC(C)(C)COC(=O)[C@@H]3CCCN(N3)C2=O)C(C)C)C1 (atropisomer, axis not shown; (M)) [Example 6, (3S)-N-[(1S)-1-[[(8S,14S)-22-ethyl-4-hydroxy-(21M)-21-[2-[(1S)-1-methoxyethyl]-3-pyridyl]-18,18-dimethyl-9,15-dioxo-16-oxa-10,22,28-triazapentacyclo[18.5.2.12,6.110,14.023,27]nonacosa-1(26),2,4,6(29),20,23(27),24-heptaen-8-yl]carbamoyl]-2-methyl-propyl]-N-methyl-1-prop-2-ynyl-pyrrolidine-3-carboxamide]			0.797			
C#CC1CN(C(=O)N(C)[C@H](C(=O)N[C@H]2Cc3cc(O)cc(c3)-c3ccc4c(c3)c(c(-c3cccnc3[C@H](C)OC)n4CC)CC(C)(C)COC(=O)[C@@H]3CCCN(N3)C2=O)C(C)C)C1 (atropisomer, axis not shown; (M)) [Example 14, N-[(1S)-1-[[(8S,14S)-22-ethyl-4-hydroxy-(21M)-21-[2-[(1S)-1-methoxyethyl]-3-pyridyl]-18,18-dimethyl-9,15-dioxo-16-oxa-10,22,28-triazapentacyclo[18.5.2.12,6.110,14.023,27]nonacosa-1(26),2,4,6(29),20,23(27),24-heptaen-8-yl]carbamoyl]-2-methyl-propyl]-3-ethynyl-N-methyl-azetidine-1-carboxamide]	0.529	0.063	0.142	0.367	0.106	1.38
CCn1c(-c2cccnc2[C@H](C)OC)c2c3cc(ccc31)-c1csc(n1)C[C@H](NC(=O)[C@H](C(C)C)N(C)C(=O)[C@H]1CCN(C(=O)[C@H](F)Cl)C1)C(=O)N1CCC[C@H](N1)C(=O)OCC(C)(C)C2 (atropisomer, axis not shown; (M)) [Example 17, (3S)-1-[(2R)-2-chloro-2-fluoro-acetyl]-N-[(1S)-1-[[(7S,13S)-21-ethyl-(20M)-20-[2-[(1S)-1-methoxyethyl]-3-pyridyl]-17,17-dimethyl-8,14-dioxo-15-oxa-4-thia-9,21,27,28-tetrazapentacyclo[17.5.2.12,5.19,13.022,26]octacosa-1(25),2,5(28),19,22(26),23-hexaen-7-yl]carbamoyl]-2-methyl-propyl]-N-methyl-pyrrolidine-3-carboxamide]		0.023	0.006	0.449	0.124	1.13
CCn1c(-c2cccnc2[C@H](C)OC)c2c3cc(ccc31)-c1cc(O)cc(c1)C[C@H](NC(=O)[C@H](C(C)C)N(C)C(=O)[C@H]1CCN(C(=O)[C@@H](F)Cl)C1)C(=O)N1CCC[C@H](N1)C(=O)OCC(C)(C)C2 (atropisomer, axis not shown; (M)) [Example 1, (3S)-1-[(2S)-2-chloro-2-fluoro-acetyl]-N-[(1S)-1-[[(8S,14S)-22-ethyl-4-hydroxy-(21M)-21-[2-[(1S)-1-methoxyethyl]-3-pyridyl]-18,18-dimethyl-9,15-dioxo-16-oxa-10,22,28-triazapentacyclo[18.5.2.12,6.110,14.023,27]nonacosa-1(26),2,4,6 (29),20,23 (27),24-heptaen-8-yl]carbamoyl]-2-methyl-propyl]-N-methyl-pyrrolidine-3-carboxamide]	0.469	0.008	0.004			
CCn1c(-c2cccnc2[C@H](C)OC)c2c3cc(ccc31)-c1cc(O)cc(c1)C[C@H](NC(=O)[C@H](C(C)C)N(C)C(=O)C1CC(C(=O)C=S(C)(C)=O)C1)C(=O)N1CCC[C@H](N1)C(=O)OCC(C)(C)C2 (stereo partly drawn) [Example 8, 3-[2-[dimethyl(oxo)-λ^6-sulfanylidene]acetyl]-N-[(1S)-1-[[(8S,14S)-22-ethyl-4-hydroxy-(21M)-21-[2-[(1S)-1-methoxyethyl]-3-pyridyl]-18,18-dimethyl-9,15-dioxo-16-oxa-10,22,28-triazapentacyclo[18.5.2.12,6.110,14.023,27]nonacosa-1(26),2,4,6(29),20,23(27),24-heptaen-8-yl]carbamoyl]-2-methyl-propyl]-N-methyl-cyclobutanecarboxamide]		0.436				
CCn1c(-c2cccnc2[C@H](C)OC)c2c3cc(ccc31)-c1cc(O)cc(c1)C[C@H](NC(=O)[C@H](C(C)C)N(C)C(=O)C1CC(C#Cc3ccccn3)C1)C(=O)N1CCC[C@H](N1)C(=O)OCC(C)(C)C2 (stereo partly drawn) [Example 13, N-[(1S)-1-[[(8S,14S)-22-ethyl-4-hydroxy-(21M)-21-[2-[(1S)-1-methoxyethyl]-3-pyridyl]-18,18-dimethyl-9,15-dioxo-16-oxa-10,22,28-triazapentacyclo[18.5.2.12,6.110,14.023,27]nonacosa-1(26),2,4,6(29),20,23(27),24-heptaen-8-yl]carbamoyl]-2-methyl-propyl]-N-methyl-3-[2-(2-pyridyl)ethynyl]cyclobutanecarboxamide]		0.189	0.066	0.328	0.274	
C#CC1CC(C(=O)N(C)[C@H](C(=O)N[C@H]2Cc3cc(O)cc(c3)-c3ccc4c(c3)c(c(-c3cccnc3[C@H](C)OC)n4CC)CC(C)(C)COC(=O)[C@@H]3CCCN(N3)C2=O)C(C)C)C1 (stereo partly drawn) [Example 4, N-[(1S)-1-[[(8S,14S)-22-ethyl-4-hydroxy-(21M)-21-[2-[(1S)-1-methoxyethyl]-3-pyridyl]-18,18-dimethyl-9,15-dioxo-16-oxa-10,22,28-triazapentacyclo[18.5.2.12,6.110,14.023,27]nonacosa-1(26),2,4,6(29),20,23(27),24-heptaen-8-yl]carbamoyl]-2-methyl-propyl]-3-ethynyl-N-methyl-cyclobutanecarboxamide]	0.297	0.042	0.03	0.162	0.051	
CCn1c(-c2cccnc2[C@H](C)OC)c2c3cc(ccc31)-c1cc(O)cc(c1)C[C@H](NC(=O)[C@H](C(C)C)N(C)C(=O)[C@H]1CCN(C(=O)C34CC3C4)C1)C(=O)N1CCC[C@H](N1)C(=O)OCC(C)(C)C2 (stereo partly drawn) [Example 11, (3S)-1-(bicyclo[1.1.0]butane-1-carbonyl)-N-[(1S)-1-[[(8S,14S)-22-ethyl-4-hydroxy-(21M)-21-[2-[(1S)-1-methoxyethyl]-3-pyridyl]-18,18-dimethyl-9,15-dioxo-16-oxa-10,22,28-triazapentacyclo[18.5.2.12,6.110,14.023,27]nonacosa-1(26),2,4,6(29),20,23(27),24-heptaen-8-yl]carbamoyl]-2-methyl-propyl]-N-methyl-pyrrolidine-3-carboxamide]	0.164	0.083	0.118	0.161	0.38	
